Data published in US20210070748A1, “INHIBITORS OF BRUTONS TYROSINE KINASE” (Pharmacyclics LLC, priority 2015, published 2021).

Assays:
[1] = biological target: T1, ITK (Homo sapiens, UniProt Q08881); test: Inhibition of a panel of kinases, in vitro HotSpot kinase assay: ITK; format: biochemical; conditions: E compounds, Table 17
T1 sequence (Q08881 1-620): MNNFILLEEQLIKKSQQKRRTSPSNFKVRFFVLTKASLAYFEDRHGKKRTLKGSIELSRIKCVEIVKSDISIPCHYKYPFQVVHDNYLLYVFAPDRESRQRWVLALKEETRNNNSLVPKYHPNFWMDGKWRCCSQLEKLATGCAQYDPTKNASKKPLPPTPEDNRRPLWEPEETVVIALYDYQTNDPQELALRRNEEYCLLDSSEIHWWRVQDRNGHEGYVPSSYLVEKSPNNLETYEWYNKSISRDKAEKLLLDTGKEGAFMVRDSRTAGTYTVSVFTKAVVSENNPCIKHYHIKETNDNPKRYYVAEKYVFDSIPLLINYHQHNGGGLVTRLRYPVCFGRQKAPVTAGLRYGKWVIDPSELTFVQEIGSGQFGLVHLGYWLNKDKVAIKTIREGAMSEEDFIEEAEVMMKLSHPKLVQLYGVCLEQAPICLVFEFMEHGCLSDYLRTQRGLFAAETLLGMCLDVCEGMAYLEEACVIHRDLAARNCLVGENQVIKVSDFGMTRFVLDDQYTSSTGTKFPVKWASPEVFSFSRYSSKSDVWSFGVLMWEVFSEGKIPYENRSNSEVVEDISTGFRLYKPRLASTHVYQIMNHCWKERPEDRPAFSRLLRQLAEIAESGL
Description: (§1) The degree of inhibition of a panel of kinases is determined using the in vitro HotSpot kinase assay (purified enzymes, ^33P-ATP, an appropriate substrate and 1 μM ATP).

[2] = biological target: T2, TEC (Homo sapiens, UniProt P42680); test: Inhibition of a panel of kinases, in vitro HotSpot kinase assay: TEC; format: biochemical; conditions: E compounds, Table 17
T2 sequence (P42680 1-631): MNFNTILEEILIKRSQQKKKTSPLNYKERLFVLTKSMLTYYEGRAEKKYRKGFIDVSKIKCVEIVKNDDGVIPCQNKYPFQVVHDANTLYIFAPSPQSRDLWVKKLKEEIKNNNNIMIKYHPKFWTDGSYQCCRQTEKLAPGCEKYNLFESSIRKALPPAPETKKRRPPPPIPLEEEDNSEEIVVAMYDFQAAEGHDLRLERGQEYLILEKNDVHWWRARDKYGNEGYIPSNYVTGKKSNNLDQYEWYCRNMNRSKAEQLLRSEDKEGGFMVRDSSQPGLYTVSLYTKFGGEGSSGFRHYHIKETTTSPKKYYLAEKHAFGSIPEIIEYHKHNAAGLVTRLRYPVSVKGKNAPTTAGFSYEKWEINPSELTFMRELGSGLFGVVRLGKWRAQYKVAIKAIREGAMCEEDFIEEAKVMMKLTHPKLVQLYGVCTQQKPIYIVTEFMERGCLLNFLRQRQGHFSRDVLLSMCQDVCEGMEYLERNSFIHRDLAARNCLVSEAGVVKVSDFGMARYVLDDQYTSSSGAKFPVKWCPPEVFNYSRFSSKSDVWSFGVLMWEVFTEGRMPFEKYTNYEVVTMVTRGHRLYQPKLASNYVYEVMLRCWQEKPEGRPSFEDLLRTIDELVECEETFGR
Description: as §1

Compound | IC50 [1] [nM] | IC50 [2] [nM]
C[C@@H]1[C@H](NC(=O)c2ccc(C3CC3)cc2)CCCN1c1cnc(C(N)=O)c(Nc2ccc(N3CCN(C4CCCC4)C[C@@H]3C)cc2)n1 [Example E-137, 3-((4-((S)-4-cyclopentyl-2-methylpiperazin-1-yl)phenyl)amino)-5-((2R,3R)-3-(4-cyclopropylbenzamido)-2-methyipiperidin-1-yl)pyrazine-2-carboxamide] | 10 to 100 | 10 to 100
C[C@@H]1[C@H](NC(=O)c2ccc(C(=O)N(C)C)cc2)CCCN1c1cnc(C(N)=O)c(Nc2cnn(C)c2)n1 [Example E-138, N1-((2R,3R)-1-(5-carbamoyl-6-((1-methyl-1H-pyrazol-4-yl)amino)pyrazin-2-yl)-2-methylpiperidin-3-yl)-N4,N4-dimethylterephthalamide] | 100 to 1000 | ≤ 10
C[C@@H]1[C@H](NC(=O)c2ccc3oc(C4CC4)nc3c2)CCCN1c1cnc(C(N)=O)c(Nc2cnn(C)c2)n1 [Example E-139, N-((2R,3R)-1-(5-carbamoyl-6-((1-methyl-1H-pyrazol-4-yl)amino)pyrazin-2-yl)-2-methylpiperidin-3-yl)-2-cyclopropylbenzo[d] oxazole-5-carboxamide] | 100 to 1000 | ≤ 10
C[C@@H]1CCN(c2cnc(C(N)=O)c(Nc3cnn(C)c3)n2)C[C@@H]1NC(=O)c1ccc(C2CC2)cc1 [Example E-140, 5-((3R,4R)-3-(4-cyclopropylbenzamido)-4-methylpiperidin-1-yl)-3-((1-methyl-1H-pyrazol-4-yl)amino)pyrazine-2-carboxamide] | > 10000 | 1000 to 10000
Cn1cc(Nc2nc(N3CCC4CCN(C(=O)c5ccc(C6CC6)cc5)C4C3)cnc2C(N)=O)cn1 (centres unmarked) [Example E-141, 5-(1-(4-cyclopropylbenzoyl)octahydro-6H-pyrrolo[2,3-c]pyridin-6-yl)-3-((1-methyl-3H-pyrazol-4-yl)amino)pyrazine-2-carboxamide] | 1000 to 10000 | 100 to 1000
C[C@@H]1[C@H](NC(=O)c2ccc(C3CC3)cc2)CCCN1c1cnc(C(N)=O)c(Nc2ccc(N3CCN(C4COC4)C[C@@H]3C)cc2)n1 [Example E-142, 5-((2R,3R)-3-(4-cyclopropylbenzamido)-2-methylpiperidin-1-yl)-3-((4-((S)-2-methyl-4-(oxetan-3-yl)piperazin-1-yl)phenyl)amino)pyrazine-2-carboxamide] | 10 to 100 | ≤ 10
C[C@@H]1[C@H](NC(=O)c2ccc(C(C)(C)N3CCCC3)cc2)CCCN1c1cnc(C(N)=O)c(Nc2cnn(C)c2)n1 [Example E-143, 3-((1-methyl-1H-pyrazol-4-yl)amino)-5-((2R,3R)-2-methyl-3-(4-(2-(pyrrolidin-1-yl)propan-2-yl)benzamido)piperidin-1-yl)pyrazine-2-carboxamide] | 100 to 1000 | ≤ 10
C[C@@H]1[C@H](NC(=O)c2ccc(C3CC3)cc2)CCCN1c1cnc(C(N)=O)c(Nc2cnc(C3CCOCC3)nc2)n1 [Example E-144, 5-((2R,3R)-3-(4-cyclopropylbenzamido)-2-methylpiperidin-1-yl)-3-((2-(tetrahydro-2H-pyran-4-yl)pyrimidin-5-yl)amino)pyrazine-2-carboxamide] | 100 to 1000 | 100 to 1000
C[C@@H]1[C@H](NC(=O)c2cccc(C(C)(C)O)c2)CCCN1c1cnc(C(N)=O)c(Nc2cnn(C)c2)n1 [Example E-145, 5-((2R,3R)-3-(3-(2-hydroxypropan-2-yl)benzamido)-2-methylpiperidin-1-yl)-3-((1-methyl-1H-pyrazol-4-yl)amino)pyrazine-2-carboxamide] | 100 to 1000 | ≤ 10
C[C@@H]1[C@H](NC(=O)c2cc(C(C)(C)C)nn2C)CCCN1c1cnc(C(N)=O)c(Nc2cnn(C)c2)n1 [Example E-146, 5-((2R,3R)-3-(3-(tert-butyl)-1-methyl-1H-pyrazole-5-carboxamido)-2-methylpiperidin-1-yl)-3-((1-methyl-1H-pyrazol-4-yl)amino)pyrazine-2-carboxamide] | 100 to 1000 | ≤ 10
C[C@@H]1[C@H](NC(=O)c2ccc(C(C)(C)O)cc2)CCCN1c1cnc(C(N)=O)c(Nc2ccc(C3(C)CCN(C4CC4)CC3)cc2)n1 [Example E-147, 3-((4-(1-cyclopropyl-4-methylpiperidin-4-yl)phenyl)amino)-5-((2R,3R)-3-(4-(2-hydroxypropan-2-yl)benzamido)-2-methylpiperidin-1-yl)pyrazine-2-carboxamide] | 10 to 100 | ≤ 10
C[C@@H]1[C@H](NC(=O)c2ccc(C3CC3)cc2)CCCN1c1cnc(C(N)=O)c(Nc2ccc(N3CCN(C)C[C@@H]3C)cc2)n1 [Example E-148, 5-((2R,3R)-3-(4-cyclopropylbenzamido)-2-methylpiperidin-1-yl)-3-((4-((S)-2,4-dimethylpiperazin-1-yl)phenyl)amino)pyrazine-2-carboxamide] | 10 to 100 | ≤ 10
C[C@@H]1[C@H](NC(=O)c2noc(C(C)(C)C)n2)CCCN1c1cnc(C(N)=O)c(Nc2cnn(C)c2)n1 [Example E-149, 5-(tert-butyl)-N-((2R,3R)-1-(5-carbamoyl-6-((1-methyl-1H-pyrazol-4-yl)amino)pyrazin-2-yl)-2-methylpiperidin-3-yl)-1,2,4-oxadiazole-3-carboxamide] | 1000 to 10000 | 100 to 1000
Cn1cc(Nc2nc(N3CCCC(C)(NC(=O)c4ccc(C5CC5)cc4)C3)cnc2C(N)=O)cn1 (centres unmarked) [Example E-150, 5-(3-(4-cyclopropylbenzamido)-3-methylpiperidin-1-yl)-3-((1-methyl-1H-pyrazol-4-yl)amino)pyrazine-2-carboxamide] | > 10000 | 100 to 1000
CCC(O)(CC)c1ccc(C(=O)N[C@@H]2CCCN(c3cnc(C(N)=O)c(Nc4cnn(C)c4)n3)[C@@H]2C)cc1 [Example E-151, 5-((2R,3R)-3-(4-(3-hydroxypentan-3-yl)benzamido)-2-methylpiperidin-1-yl)-3-((1-methyl-1H-pyrazol-4-yl)amino)pyrazine-2-carboxamide] | 100 to 1000 | ≤ 10
Cc1cc(C(=O)N[C@@H]2CCCN(c3cnc(C(N)=O)c(Nc4cnn(C)c4)n3)[C@@H]2C)ccc1C(C)(C)O [Example E-152, 5-((2R,3R)-3-(4-(2-hydroxypropan-2-yl)-3-methylbenzamido)-2-methylpiperidin-1-yl)-3-((1-methyl-1H-pyrazol-4-yl)amino)pyrazine-2-carboxamide] | 100 to 1000 | ≤ 10
C[C@@H]1[C@H](NC(=O)c2ccc3c(c2)C(C)(C)OC3)CCCN1c1cnc(C(N)=O)c(Nc2cnn(C)c2)n1 [Example E-153, 5-((2R,3R)-3-(3,3-dimethyl-1,3-dihydroisobenzofuran-5-carboxamido)-2-methylpiperidin-1-yl)-3-((1-methyl-1H-pyrazol-4-yl)amino)pyrazine-2-carboxamide] | 100 to 1000 | ≤ 10
C[C@@H]1[C@H](NC(=O)c2ccc(-c3ncco3)cc2)CCCN1c1cnc(C(N)=O)c(Nc2cnn(C)c2)n1 [Example E-154, 3-((1-methyl-1H-pyrazol-4-yl)amino)-5-((2R,3R)-2-methyl-3-(4-(oxazol-2-yl)benzamido)piperidin-1-yl)pyrazine-2-carboxamide] | 100 to 1000 | ≤ 10
Cc1nc(-c2ccc(C(=O)N[C@@H]3CCCN(c4cnc(C(N)=O)c(Nc5cnn(C)c5)n4)[C@@H]3C)cc2)cs1 [Example E-155, 3-((1-methyl-1H-pyrazol-4-yl)amino)-5-((2R,3R)-2-methyl-3-(4-(2-methylthiazol-4-yl)benzamido)piperidin-1-yl)pyrazine-2-carboxamide] | 100 to 1000 | ≤ 10
